The nature of data set [1]: Metabolism in human liver S9 fractions. The format is in vitro ADME. As to the method: (§1) IMMH-010 metabolism was compared in human, monkey, dog, and rat liver S9 homogenates. IMMH-010 (10 μM) was incubated with liver S9 homogenate protein (0.5 mg protein/mL) and a reduced nicotinamide adenine dinucleotide phosphate (NADPH) regenerating system in a final volume of 0.2 mL Tris-HCl buffer (50 mM, pH 7.4) containing 5 mM MgCl2. The reactions were performed in triplicate. After 2 min of preincubation at 37 °C, reactions were initiated by the addition of IMMH-010 (10 μM). The samples were collected 0, 5, 10, and 20 min after incubation, 2 volumes of acetonitrile were added to terminate the reaction. After vortexing and centrifugation, IMMH-010, YPD-29B, M3, and M4 in the supernatant were analyzed by LC-MS/MS.
(§2) All statistics were calculated using GraphPad Prism 8.0 software (San Diego, CA, USA) designed for one-way ANOVA. Pharmacokinetic parameters were calculated with a non-compartmental analysis using WinNonlin Version 6.3 (Pharsight, Mountain View, CA, USA). ADMET predictor V10.0 (Simulations Plus, Inc., Lancaster, CA, USA) and Microsoft Excel (Microsoft, Redmond, WA, USA) were used to process the data (i.e., half-life (t1/2) and hepatic clearance (CLhep) determination). Data were expressed as means ± standard deviations (SD). Results were considered statistically significant if the p-value <0.05, <0.01 and <0.001.

Data set [2] can be described thus: Metabolism in monkey liver S9 fractions. The class given is in vitro ADME. As to the method:
as §1, §2

A short description of data set [3]: Plasma and tumor PK in MC38 colon cancer xenograft mice. The format is in vivo, mouse. The note with it: after last oral dose of IMMH-010 maleate 5 mg/kg. On the procedure:
After the final dose, tumor and blood samples treated with IMMH-010 maleate (5 mg/kg) were collected over 72 h. Blood was exposed in an EP tube containing 500 mM NaF and 0.5% heparin sodium. Plasma samples were obtained by centrifugation, and tumor tissues were homogenized with 3 volumes (w/v) of saline on ice. The concentration of IMMH-010 and YPD-29B in plasma and tumor samples was quantitated by an LC-MS/MS method.
LC-MS/MS was performed using a triple quadrupole mass spectrometer (API 4000, AB Sciex, Framingham, MA, USA) with an ultra-performance liquid chromatography system (LC-30A, Shimadzu, Kyoto, Japan). Analyst 1.6.2 software (AB Sciex) was used for data acquisition and analysis. Mobile phase A was 1 mM ammonium acetate and mobile phase B was methanol. The mobile phase was delivered with the following gradient elution profile: 0–2.8 min, 70% B; 2.9 min, 85% B; 3 min, 90% B; 3.1–6.8 min, 100% B; 6.9–12 min, 70% B. The flow rate was 0.3 mL/min, and the column oven was maintained at 35 °C. The specific transitions monitored were 641.3 → 494.2 for IMMH-010, 597 → 155 for YPD-29B, 512 → 247 for M3, and 524 → 246 for M4.
as §2

Another data set concerns the target T1, CES2 (Homo sapiens, UniProt O00748).
T1 sequence (O00748 27-559): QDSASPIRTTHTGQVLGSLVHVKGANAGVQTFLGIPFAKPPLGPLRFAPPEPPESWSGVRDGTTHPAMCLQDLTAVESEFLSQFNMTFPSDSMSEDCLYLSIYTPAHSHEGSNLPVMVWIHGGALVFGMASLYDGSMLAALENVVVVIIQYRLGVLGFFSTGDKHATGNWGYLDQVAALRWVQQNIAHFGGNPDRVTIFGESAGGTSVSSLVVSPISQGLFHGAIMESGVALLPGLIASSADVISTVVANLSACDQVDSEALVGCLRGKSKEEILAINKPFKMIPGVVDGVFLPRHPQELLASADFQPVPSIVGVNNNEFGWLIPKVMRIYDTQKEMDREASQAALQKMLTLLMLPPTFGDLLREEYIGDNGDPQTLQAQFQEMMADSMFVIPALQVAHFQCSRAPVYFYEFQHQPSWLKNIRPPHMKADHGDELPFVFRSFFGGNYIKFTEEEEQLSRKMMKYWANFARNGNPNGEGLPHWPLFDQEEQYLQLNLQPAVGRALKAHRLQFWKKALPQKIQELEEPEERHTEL
Nature of the data set: IMMH-010 hydrolysis by recombinant human CES2. Also noted: purchased Cypex Ltd. (Dundee, United Kingdom). As to conditions: 10 μM, CES2 0.1 mg/mL, 15 min, 37 °C. The class given is in vitro ADME. On the procedure:
To verify the role of CES1, CES2, and AADAC in human metabolism of […]-010 (10 μM) was incubated individually with recombinant human CES1, CES2, and AADAC (0.1 mg protein/mL) at 37 °C for 15 min. Lidocaine (500 μM), CPT-11 (2 μM), and phenacetin (1 mM), which are substrates of CES1, CES2, and AADAC, were used as positive controls.

Data set [4] can be described thus: IMMH-010 stability in rat plasma. The format is in vitro ADME. As to conditions: 10 μM, 4 °C, 60 min. On the procedure: (§3) IMMH-010 hydrolysis was investigated in human, monkey, rat, and mouse plasma. IMMH-010 (1 μM) was incubated in human, monkey, or […] plasma (0.2 mL) at 37 °C for 120 min. IMMH-010 (10 μM) was incubated in rat or mouse plasma (0.2 mL) at 4 °C for 60 min. The experiments were performed in triplicate. The reactions were initiated by the addition of IMMH-010 (10 μM). After incubation, the reactions were stopped by adding 2 volumes of ice-cold acetonitrile. After vortexing and centrifuging, the concentrations of IMMH-010 and YPD-29B in the supernatant were determined by liquid chromatography with tandem mass spectrometry (LC-MS/MS). The compound olmesartan (10 μM), a substrate of paraoxonase 1, was set as the positive control.

Data set [5] is described as follows: IMMH-010 stability in mouse plasma. The note with it: 10 μM, 4 °C, 60 min. The format is in vitro ADME. As to the method:
as §3

Data set [6] in a line: Metabolism in dog liver S9 fractions. The format is in vitro ADME. As to the method: as §1, §2

For orientation: half-life means the time needed for the level to fall by half in the phase considered.

Take `CC(C)OC(=O)[C@H](CO)NCc1cc(Cl)c(OCc2cccc(-c3ccccc3)c2Br)cc1OCc1cccnc1` [IMMH-010]: the results for the “estimated CLhep” value in data set [1] (from human liver S9), in data set [2] (from monkey liver S9) and in data set [6] (from dog liver S9) were 18.2 mL/min/kg, 37.2 mL/min/kg and 36.4 mL/min/kg, respectively. Further, the half-life at 10 μM in data set [1] (pH 7.4, human liver S9 0.5 mg protein/mL, 10 μM, NADPH) is 6.66 min; in data set [2] (pH 7.4, monkey liver S9 0.5 mg protein/mL, 10 μM, NADPH) it was 8.28 min; in data set [6] (pH 7.4, dog liver S9 0.5 mg protein/mL, 10 μM, NADPH), 4.9 min. For the same molecule, in data set [1] (range over human, monkey, dog and rat liver S9), the “CLhep as share of hepatic blood flow” value is 83.4–91.0%. In data set [3], the “concentration of IMMH-010 in plasma and tumor tissues” value is listed as below 1 ng/mL. Moreover, at CES2, the “remaining amount of IMMH-010” value is recorded as 94.2%. Further, the plasma stability result in data set [4] and in data set [5] was “decreased time-dependently” each time.

These data come from PMC8143347, “Metabolism and Interspecies Variation of IMMH-010, a Programmed Cell Death Ligand 1 Inhibitor Prodrug” (Pharmaceutics, 2021).
